PMC12263422, “Cryo-EM structure of the human THIK-1 K2P K^+ channel reveals a lower Y gate regulated by lipids and anesthetics” (Nature Structural & Molecular Biology, 2025)
Where “and” joins values, the source holds several entries; their conditions need not be identical. Identical values can stand only once. Like-named read-outs stand apart in the source and are kept apart here.

Legend:
[1] = molecular target: T1, R87D THIK-1 single channels (Homo sapiens, UniProt Q9HB14, R87D); assay: Single-channel excised patch recordings of R87D THIK-1 at -100 mV with halothane; type: cell-based
T1 construct: expressed in transfected cells; host or cells: Xenopus oocytes (mRNA injection)
T1 sequence (Q9HB14 whole entry R87D): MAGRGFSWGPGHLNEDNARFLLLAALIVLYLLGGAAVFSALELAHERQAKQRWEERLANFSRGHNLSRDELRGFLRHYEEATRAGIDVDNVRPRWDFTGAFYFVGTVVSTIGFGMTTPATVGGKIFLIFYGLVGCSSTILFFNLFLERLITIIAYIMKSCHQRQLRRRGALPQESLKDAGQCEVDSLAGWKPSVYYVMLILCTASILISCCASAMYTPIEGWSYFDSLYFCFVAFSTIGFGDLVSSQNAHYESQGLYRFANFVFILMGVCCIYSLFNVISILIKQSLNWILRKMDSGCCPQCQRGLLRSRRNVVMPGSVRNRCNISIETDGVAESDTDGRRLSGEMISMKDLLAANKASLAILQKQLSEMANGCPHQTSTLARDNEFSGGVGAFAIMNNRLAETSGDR
Method: Two-electrode voltage–clamp (TEVC) studies were performed in Xenopus oocytes. All animal use conformed to the Guide for the Care and Use of Laboratory Animals (NIH Publication 85–23), and all experiments using Xenopus toads were approved by the local ethics panels. Oocytes were stored at 17 °C in ND96 recording solution composed of (in mM): 96 NaCl, 2 KCl, 1.8 CaCl2, 1 MgCl2, 5 HEPES (pH 7.5 adjusted with NaOH and HCl), supplemented with Na-pyruvate (275 mg L^–1), theophylline (90 mg L^–1) and gentamicin (50 mg L^–1). Oocytes were injected with 1 ng mRNA for WT or mutant channels, and were incubated for 24–48 h at 17 °C. Two-electrode voltage clamp recordings were then performed as previously described[42],[43]. […] Currents were recorded with an EPC10 amplifier (HEKA Electronics) and sampled at 10 kHz or higher, with filtering set to 3 kHz (–3 dB) or higher, as appropriate for sampling rate. For measurements of GPCR activation, whole-cell currents were recorded for THIK-1 in transiently transfected HEK-293 cells. […] Single-channel currents were recorded with an Axopatch 200B amplifier through a Digidata 1440A digitizer (Molecular Devices). Data were filtered at 2 kHz and recorded at a 200-kHz sampling rate with the program Clampex (Molecular Devices). […]

THIK-1 Y102A = molecular target: T2, THIK-1 Y102A (Homo sapiens, UniProt Q9HB14, Y102A); assay: Inside-out excised patch recordings, oocytes, THIK-1 Y102A mutant (lipid activation); type: cell-based; conditions: read-out: Linoleic acid EC50
T2 construct: expressed in transfected cells; host or cells: Xenopus oocytes (mRNA injection)
T2 sequence (Q9HB14 whole entry Y102A): as the sequence (Q9HB14 whole entry R87D) above, with D87R, Y102A counted along it
Text: Supplement 41594_2025_1497_MOESM2_ESM.xlsx, sheet "ExtData_Fig_S5f" | column: Linoleic acid EC50 (µM); Y102A

| decrease in activity ([1]; 0.4% halothane) | decrease in activity ([1]; 1% halothane) | EC50 (THIK-1 Y102A; individual recordings) | EC50 (THIK-1 Y102A; mean) | Structure (SMILES) |
| --- | --- | --- | --- | --- |
| 30% | 75% | – | – | FC(F)(F)C(Cl)Br (stereo not shown) [halothane] |
| – | – | 104 µM and 133 µM and 58 µM and 58.2 µM and 59.6 µM and 297 µM and 47.2 µM and 49 µM and 36.2 µM | 93.6 µM | CCCCC/C=C\C/C=C\CCCCCCCC(=O)O [linoleic acid] |
